Measured values: patent publication US7041131B2, “Bioengineered vascular graft support prostheses” (Organogenesis, Inc., priority 1998, dated 2006)

Experiments:
[1] = tested on: tube supported vein grafts; assay: Isometric tension studies on rings of tube supported vein grafts; set-up: species or system New Zealand male white rabbits; conditions: for EC50: Oryctolagus cuniculus, 672 h, read-out: Sensitivity, -log10(EC50) (converted)
Experimental: (§1) Twenty-nine New Zealand male white rabbits underwent interposition bypass grafting of the right common carotid artery using the reversed ipsilateral jugular vein. In the experimental group (n=15), once the proximal anastomosis was performed, the vein was passed through a collagen tube having dimensions of 4 mm in diameter and 35 to 40 mm in length and the distal anastomosis was then completed. Leaks were repaired and the collagen tube was fashioned to completely cover the vein graft, including both anastomoses. Control animals (n=14) were treated identically but without tube support. One intraoperative death resulted from an unrecognized leak in the mid-segment of a vein graft in the experimental group. Otherwise, there were no other significant complications such as infection or bleeding in either group. […] Postoperatively, the flow rate and intraluminal pressure in vein grafts were measured on either day 3 or 28 (n=5 per group). Vein grafts were harvested on day 3 for assessment of tyrosine phosphorylation by Western blot analysis (n=4 per group), and on day 28 for morphometric measurement (n=5 per group), scanning and transmission electron microscopy (n=5 per group) and isometric tension studies (n=5 per group). On the day of harvest, animals were anesthetized and subsequently sacrificed with an intravenous overdose of barbiturates.
(§2) Vein grafts were sectioned into four 5 mm rings. In the tube supported group, the collagen tube was carefully dissected off and removed to allow unimpeded vessel contraction and relaxation. Each ring was immediately mounted between two stainless steel hooks in 5 ml organ baths containing oxygenated Krebs solution (122 mM NaCl, 4.7 mM KCl, 1 2 mM MgCl2, 2.5 mM CaCl2, 15.4 mM NaHCO3, 1.2 mM KH2PO4 and 5.5 mM glucose, maintained at 37° C. and oxygenated with 95% O2 and 5% CO2), as previously described with some modifications. In brief, following equilibration, the resting tension was adjusted in increments from 0.5 to 1.25 gms and the maximal response to a modified oxygenated Krebs solution containing 60 mM KCl, 66.7 mM NaCl, 1.2 mM MgCl2, 2.5 mM CaCl2, 15.4 mM NaHCO3, 1.2 mM KH2PO4 and 5.5 mM glucose was measured to establish a length-tension relationship. Cumulative dose response curves to the contractile agonists bradykinin (10^−9 to 10^−5 M), norepinephrine (10^−9 to 10^−4 M), and serotonin (10^−9 to 10^−4 M) were performed. Relaxation responses to acetylcholine (10^−8 to 10^−4 M), an endothelium dependent agonist, and nitroprusside (10^−8 to 10^−4 M), an endothelium independent agonist, were assessed on rings precontracted with norepinephrine, at the concentration which produced 80% of maximal contraction. All rings were allowed to re-equilibrate for a minimum of 30 minutes between each experimental run and the same sequence of agonist testing was maintained for all experiments. (All chemicals were obtained from Sigma Chemical Co. (St Louis, Mo.)).
(§3) The concentration for the half maximal response (EC50) was calculated by logistic analysis and the sensitivity is defined as -log10(EC50). In each vein graft, the sensitivity was determined for each vessel ring (4 rings per vein graft) and the mean was taken as the value for that vein graft. Values shown are the mean±s.e.m (n=5 per group). Statistical differences between the tube supported vein grafts and control vein grafts were compared using the unpaired Student's t-test.

control vein grafts = assay: Isometric tension studies on rings of control vein grafts; set-up: species or system New Zealand male white rabbits; conditions: for Sensitivity, -log10(EC50) / EC50: day 28 control vein grafts without tube support, mean±s.e.m, n=5; for EC50: Oryctolagus cuniculus, 672 h, read-out: Sensitivity, -log10(EC50) (converted)
Experimental: as §1, §2, §3

[2] = day 28 tube supported vein grafts, tube removed, mean±s.e.m, n=5

Row | EC50 [1, 2] | Sensitivity, -log10(EC50) (control vein grafts) | Molecule | EC50 (control vein grafts) | other results
1 | 120000 nM | no response | CC(=O)OCC[N+](C)(C)C [Acetylcholine, acetylcholine] | – | Maximal relaxation ([1]; tube supported vein graft rings precontracted with norepinephrine): 64 % of precontracted tension
2 | – | – | [Cl-].[K+] [KCl] | – | Contractile force ([1]; 60 mM KCl, tube supported vein grafts): 300 ± 46 mg; Contractile force (control vein grafts; 60 mM KCl, control vein grafts): 280 ± 47 mg
3 | 1100 nM | – | NC[C@H](O)c1ccc(O)c(O)c1 [Norepinephrine, norepinephrine] | 1070 nM | –
4 | – | 6.73 ± 0.19 | nitroprusside | – | Sensitivity, -log10(EC50) [1, 2]: 6.46 ± 0.12

Row | Molecule | EC50 [1, 2] | Sensitivity, -log10(EC50) (control vein grafts) | EC50 (control vein grafts) | other results
5 | NCCc1c[nH]c2ccc(O)cc12 [Serotonin, serotonin] | 407 nM | – | 525 nM | –
